{"source": "patent US7138231B2", "about": "(priority 2000, dated 2006)", "key": {"[1]": {"system": "HIV-1 variants with protease substitutions", "settings": "both substitutions G48V-L90M; cited from earlier work"}, "[2]": {"system": "HIV-1 patient-derived protease and reverse transcriptase segments (N88S in PR) in resistance test vectors", "assay": "Phenotypic drug susceptibility test with resistance test vectors from patient samples", "format": "cell-based", "settings": "patient sample RTV-627"}, "[3]": {"system": "HIV-1", "settings": "cited from earlier work"}, "[4]": {"system": "HIV-1 patient viruses with protease L90M", "assay": "Phenotypic susceptibility profiles of 333 patient virus samples with L90M (not 30 or 50)", "format": "cell-based", "settings": "for % with SQV FC > 2.5 / wt % > 2.5 / wt % > 10: L90M"}, "[5]": {"system": "HIV-1 protease site-directed mutants (N88S, L63P, V77I, M46L) in resistance test vector", "assay": "Phenotypic susceptibility assay of resistance test vectors with site-directed mutations in PR", "source_text": "The resistance test vectors containing a functional luciferase gene cassette were constructed and host cells were transfected with the resistance test vector DNA. […] The resistance test vector viral particles produced by transfecting the resistance test vector DNA into host cells, either in the presence or absence of protease inhibitors, were used to infect target host cells grown either in the absence of NRTI or NNRTI or in the presence of increasing concentrations of the drug. Luciferase activity in infected target host cells in the presence of drug was compared to the luciferase activity in infected target host cells in the absence of drug. […] The IC50 values were determined by plotting percent drug inhibition vs. log10 drug concentration.\nHost cells were seeded in 10-cm-diameter dishes and were transfected one day after plating with resistance test vector plasmid DNA and the envelope expression vector. Transfections were performed using a calcium-phosphate co-precipitation procedure. The cell culture media containing the DNA precipitate was replaced with fresh medium, from one to 24 hours, after transfection. Cell culture media containing resistance test vector viral particles was harvested one to four days after transfection and was passed through a 0.45-mm filter before being stored at −80° C. HIV capsid protein (p24) levels in the harvested cell culture media were determined by an EIA method as described by the manufacturer (SIAC; Frederick, Md.). Before infection, target cells (293 and 293/T) were plated in cell culture media. Control infections were performed using cell culture media from mock transfections (no DNA) or transfections containing the resistance test vector plasmid DNA without the envelope expression plasmid. One to three or more days after infection the media was removed and cell lysis buffer (Promega) was added to each well. Cell lysates were assayed for luciferase activity. The inhibitory effect of the drug was determined using the following equation: % luciferase inhibition=[1−(RLUluc[drug]RLUluc)]×100 where RLUluc [drug] is the relative light unit of luciferase activity in infected cells in the presence of drug and RLUluc is the Relative Light Unit of luciferase activity in infected cells in the absence of drug. IC50 values were obtained from the sigmoidal curves that were generated from the data by plotting the percent inhibition of luciferase activity vs. the log10 drug concentration.\nMutations are introduced into the resistance test vector through any of the widely known methods for site-directed mutagenesis. […] A resistance test vector containing the specific mutation or group of mutations are then tested using the phenotypic susceptibility assay described above and the susceptibility profile is compared to that of a genetically defined wild-type (drug susceptible) resistance test vector which lacks the specific mutations.\nResistance test vectors were constructed containing the N88S mutation alone and in combination with other substitutions in PR (L63P, V77I and M46L) known to modulate the HIV susceptibility to PRIs. Mutations were introduced into the resistance test vector using the mega-primer PCR method for site-directed mutagenesis."}, "[6]": {"system": "HIV-1 patient viruses with protease L90M", "assay": "Phenotypic susceptibility profiles of 58 patient virus samples with L90M, no other primary mutations", "format": "cell-based", "settings": "for % w with SQV FC > 2.5: L90M; for % FC > 2.5: SQV"}}, "data": [{"smiles": "CC(C)(C)NC(=O)[C@@H]1C[C@@H]2CCCC[C@@H]2CN1C[C@@H](O)[C@H](Cc1ccccc1)NC(=O)[C@H](CC(N)=O)NC(=O)c1ccc2ccccc2n1", "note": "[saquinavir]", "values": [{"measurement": "loss of susceptibility", "setting": "[1]", "result": "> 100", "unit": "fold"}, {"measurement": "change in susceptibility", "setting": "[2]", "result": "increase"}, {"measurement": "patients in whom resistant variants emerge", "setting": "[3]; after 1 year of monotherapy with 1,800 mg daily", "result": "approximately 45%"}, {"measurement": "frequency of resistance", "setting": "[3]; combination therapy with zidovudine, zalcitabine, and saquinavir", "result": 22, "unit": "%"}, {"measurement": "% with SQV FC > 2.5", "setting": "[4]; number of secondary mutations (weighted count) 0", "result": 23.5, "unit": "%"}, {"measurement": "% with SQV FC > 2.5", "setting": "[4]; number of secondary mutations (weighted count) 1", "result": 25.0, "unit": "%"}, {"measurement": "% with SQV FC > 2.5", "setting": "[4]; number of secondary mutations (weighted count) 2", "result": 69.4, "unit": "%"}, {"measurement": "% with SQV FC > 2.5", "setting": "[4]; number of secondary mutations (weighted count) 3", "result": 85.7, "unit": "%"}, {"measurement": "% with SQV FC > 2.5", "setting": "[4]; number of secondary mutations (weighted count) 4", "result": 97.3, "unit": "%"}, {"measurement": "% with SQV FC > 2.5", "setting": "[4]; number of secondary mutations (weighted count) 5", "result": 100, "unit": "%"}, {"measurement": "% with SQV FC > 2.5", "setting": "[4]; number of secondary mutations (weighted count) 6 or more", "result": 100, "unit": "%"}, {"measurement": "wt % > 2.5", "setting": "[4]; Saquinavir FC>2.5, position 10 wild type", "result": 56.4, "unit": "%"}, {"measurement": "wt % > 2.5", "setting": "[4]; Saquinavir FC>2.5, position 20 wild type", "result": 73.9, "unit": "%"}, {"measurement": "wt % > 2.5", "setting": "[4]; Saquinavir FC>2.5, position 33 wild type", "result": 77.4, "unit": "%"}, {"measurement": "wt % > 2.5", "setting": "[4]; Saquinavir FC>2.5, position 36 wild type", "result": 74.9, "unit": "%"}, {"measurement": "wt % > 2.5", "setting": "[4]; Saquinavir FC>2.5, position 37 wild type", "result": 76.4, "unit": "%"}, {"measurement": "wt % > 2.5", "setting": "[4]; Saquinavir FC>2.5, position 48 wild type", "result": 78.1, "unit": "%"}, {"measurement": "wt % > 2.5", "setting": "[4]; Saquinavir FC>2.5, position 53 wild type", "result": 77.3, "unit": "%"}, {"measurement": "wt % > 2.5", "setting": "[4]; Saquinavir FC>2.5, position 54 wild type", "result": 68.1, "unit": "%"}, {"measurement": "wt % > 2.5", "setting": "[4]; Saquinavir FC>2.5, position 63 wild type", "result": 37.5, "unit": "%"}, {"measurement": "wt % > 2.5", "setting": "[4]; Saquinavir FC>2.5, position 64 wild type", "result": 83.1, "unit": "%"}, {"measurement": "wt % > 2.5", "setting": "[4]; Saquinavir FC>2.5, position 66 wild type", "result": 78.4, "unit": "%"}, {"measurement": "wt % > 2.5", "setting": "[4]; Saquinavir FC>2.5, position 71 wild type", "result": 58.0, "unit": "%"}, {"measurement": "wt % > 2.5", "setting": "[4]; Saquinavir FC>2.5, position 73 wild type", "result": 73.6, "unit": "%"}, {"measurement": "wt % > 2.5", "setting": "[4]; Saquinavir FC>2.5, position 84 wild type", "result": 70.7, "unit": "%"}, {"measurement": "wt % > 2.5", "setting": "[4]; Saquinavir FC>2.5, position 93 wild type", "result": 85.6, "unit": "%"}, {"measurement": "mt % > 2.5", "setting": "[4]; Saquinavir FC>2.5, listed as 90: all samples with L90M", "result": 79.3, "unit": "%"}, {"measurement": "wt % > 10", "setting": "[4]; Saquinavir FC>10, position 10 wild type", "result": 20.5, "unit": "%"}, {"measurement": "wt % > 10", "setting": "[4]; Saquinavir FC>10, position 20 wild type", "result": 33.9, "unit": "%"}, {"measurement": "wt % > 10", "setting": "[4]; Saquinavir FC>10, position 23 wild type", "result": 42.4, "unit": "%"}, {"measurement": "wt % > 10", "setting": "[4]; Saquinavir FC>10, position 35 wild type", "result": 38.8, "unit": "%"}, {"measurement": "wt % > 10", "setting": "[4]; Saquinavir FC>10, position 36 wild type", "result": 34.2, "unit": "%"}, {"measurement": "wt % > 10", "setting": "[4]; Saquinavir FC>10, position 48 wild type", "result": 40.8, "unit": "%"}, {"measurement": "wt % > 10", "setting": "[4]; Saquinavir FC>10, position 53 wild type", "result": 39.8, "unit": "%"}, {"measurement": "wt % > 10", "setting": "[4]; Saquinavir FC>10, position 54 wild type", "result": 32.8, "unit": "%"}, {"measurement": "wt % > 10", "setting": "[4]; Saquinavir FC>10, position 58 wild type", "result": 41.6, "unit": "%"}, {"measurement": "wt % > 10", "setting": "[4]; Saquinavir FC>10, position 62 wild type", "result": 38.5, "unit": "%"}, {"measurement": "wt % > 10", "setting": "[4]; Saquinavir FC>10, position 64 wild type", "result": 46.1, "unit": "%"}, {"measurement": "wt % > 10", "setting": "[4]; Saquinavir FC>10, position 71 wild type", "result": 29.0, "unit": "%"}, {"measurement": "wt % > 10", "setting": "[4]; Saquinavir FC>10, position 73 wild type", "result": 39.4, "unit": "%"}, {"measurement": "wt % > 10", "setting": "[4]; Saquinavir FC>10, position 77 wild type", "result": 49.5, "unit": "%"}, {"measurement": "wt % > 10", "setting": "[4]; Saquinavir FC>10, position 84 wild type", "result": 24.9, "unit": "%"}, {"measurement": "wt % > 10", "setting": "[4]; Saquinavir FC>10, position 93 wild type", "result": 50.7, "unit": "%"}, {"measurement": "mt % > 10", "setting": "[4]; Saquinavir FC>10, listed as 90: all samples with L90M", "result": 43.5, "unit": "%"}, {"measurement": "Fold Change vs. reference", "setting": "[5]; site-directed mutation N88S", "result": 0.47, "unit": "fold"}, {"measurement": "Fold Change vs. reference", "setting": "[5]; site-directed mutations L63P", "result": 1.04, "unit": "fold"}, {"measurement": "Fold Change vs. reference", "setting": "[5]; site-directed mutations L63P, N88S", "result": 1.44, "unit": "fold"}, {"measurement": "Fold Change vs. reference", "setting": "[5]; site-directed mutations M46L, L63P, V77I, N88S", "result": 1.45, "unit": "fold"}, {"measurement": "% w with SQV FC > 2.5", "setting": "[6]; number of secondary mutations 0", "result": 53, "unit": "%"}, {"measurement": "% w with SQV FC > 2.5", "setting": "[6]; number of secondary mutations 1", "result": 47, "unit": "%"}, {"measurement": "% w with SQV FC > 2.5", "setting": "[6]; number of secondary mutations 2", "result": 43, "unit": "%"}, {"measurement": "% w with SQV FC > 2.5", "setting": "[6]; number of secondary mutations 3", "result": 68, "unit": "%"}, {"measurement": "% w with SQV FC > 2.5", "setting": "[6]; number of secondary mutations 4", "result": 77, "unit": "%"}, {"measurement": "% w with SQV FC > 2.5", "setting": "[6]; number of secondary mutations 5", "result": 100, "unit": "%"}, {"measurement": "% w with SQV FC > 2.5", "setting": "[6]; number of secondary mutations 6", "result": 100, "unit": "%"}, {"measurement": "% FC > 2.5", "setting": "[6]; L90M + mutation at position 10", "result": 65, "unit": "%"}, {"measurement": "% FC > 2.5", "setting": "[6]; L90M + mutation at position 71", "result": 78, "unit": "%"}, {"measurement": "% FC > 2.5", "setting": "[6]; L90M + mutation at position 71, listed as SQV", "result": 78, "unit": "%"}, {"measurement": "% FC > 2.5", "setting": "[6]; L90M + mutation at position 73", "result": 79, "unit": "%"}, {"measurement": "% FC > 2.5", "setting": "[6]; L90M + mutation at position 73, listed as SQV", "result": 79, "unit": "%"}, {"measurement": "% FC > 2.5", "setting": "[6]; L90M + mutation at position 77", "result": 76, "unit": "%"}, {"measurement": "% FC > 2.5", "setting": "[6]; listed as 90: all viruses with L90M", "result": 55, "unit": "%"}]}]}
